Entries after “also recorded” stand apart in the source; their conditions may differ. Ends that are not written are not given here.

For assay [1], the system named is calcitonin gene-related peptide (CGRP) release from the trigeminal nucleus caudalis. To be noted: ref Jansen-Olesen et al., 2014; cited from earlier work. An excerpt:
Future studies will have to rule out if MrgB3-receptors are involved in PACAP- ...

In another assay the test system is PAC1-receptor. As to conditions: relative to PACAP; ref Miyata et al., 1989, 1990; Harmar et al., 1998; cited from earlier work. The text has this:
Pituitary adenylate cyclase-activating peptide-38 (PACAP-38) is a 38-amino acid neuropeptide located in both sensory and parasympathetic perivascular nerve fibers (Moller et al., [1993]; Mulder et al., [1994]). A C-terminal truncated 27-amino acid (PACAP-27) version is endogenously present as well but is less abundant (Miyata et al., [1990]; Arimura et al., [1991]; Ogi et al., [1993]). […] At present, three PACAP-receptors have been identified: PA ... || Several different splice variants of the PAC1-receptor have been identified in rats. Splice sites in the extracellular N-terminal domain and the third intracellular loop account for fine tuning of ligand affinity and signal transduction through adenylate cyclase or PLC activation (Deutsch and Sun, [1992]; Spengler et al., [1993]).

Another assay concerns VPAC2-receptor. Details: method as in Harmar et al., 2012. As to conditions: PACAP-38, PACAP-27 and VIP compared; ref Harmar et al., 2012; cited from earlier work.
A further assay relates to migraine patients. As to conditions: migraineurs; ref Rahmann et al., 2008; cited from earlier work. An excerpt: Pituitary adenylate cyclase-activating peptide-38 (PACAP-38) is a 38-amino acid neuropeptide located in both sensory and parasympathetic perivascular nerve fibers (Moller et al., [1993]; Mulder et al., [1994]). A C-terminal truncated 27-amino acid (PACAP-27) version is endogenously present as well but is less abundant (Miyata et al., [1990]; Arimura et al., [1991]; Ogi et al., [1993]). […] Degranulation of mast cells can be induced either by an allergen-IgE-dependent mechanism or via an IgE-independent mechanism. The latter mechanism can be activated by a group of molecules known as basic secretagogues.

Assay [2] concerns rat peritoneal mast cells. To be noted: rat peritoneal mast cells; ref Baun et al., 2012; cited from earlier work. The text has this: Inspired by clinical findings, we have previously characterized the degranulating effect of various PACAP-analogues on isolated rat peritoneal mast cells. Based on the expectation that degranulation is mediated through the PAC1-receptor, we found an unpredicted order of potency (Baun et al., [2012]).

For another assay, the system named is VPAC2. To be noted: cited from earlier work. The text has this: (§1) Pituitary adenylate cyclase-activating peptide-38 (PACAP-38) is a 38-amino acid neuropeptide located in both sensory and parasympathetic perivascular nerve fibers (Moller et al., [1993]; Mulder et al., [1994]). A C-terminal truncated 27-amino acid (PACAP-27) version is endogenously present as well but is less abundant (Miyata et al., [1990]; Arimura et al., [1991]; Ogi et al., [1993]).

For another assay, the system named is VPAC1. To be noted: cited from earlier work.
Excerpt: as §1

Another assay has as its system VPAC1-receptor. The arrangement: method as in Harmar et al., 2012. To be noted: PACAP-38, PACAP-27 and VIP compared; ref Harmar et al., 2012; cited from earlier work.
In assay [3] the test system is PAC1-receptor (Rattus Norvegicus Adcyap1r1 variant 5, null-splice variant). It counts as cell-based. The text has this: (§2) DNA of the coding region of Rattus Norvegicus Adcyap1r1 variant 5 (NM_001270582.1) encoding the null-splice variant (short N-terminal and neither exon 14 or 15) of the PAC1-receptor (Vector: EX-Rn10199-M03) was ordered from GeneCopoeia. DNA encoding the RGD1560730 gene (XM_006229262.3, GenScript), was cloned into the pXOOM vector as previously described (Jespersen et al., [2002]). DNA was purified using Plasmid DNA Purification NucleoBond Xtra Midi-kit (Macherey-Nagel). […] Extracted plasmids were linearized down-stream the poly(A) segment using the XhoI restriction enzyme (New England Biolabs, Ipswich, MA, USA). RNA was in vitro transcribed by synthetization from the T7 RNA polymerase promoter using the mMessenger mMachine kit (Ambion) according to manufacturer’s protocol. Messenger RNA was purified using the MEGAclear kit (Ambion). Transcribed RNA integrity was assessed by agarose gel electrophoresis.
(§3) Stage V and VI defolliculated Xenopus laevis oocytes were purchased from EcoCyte Bioscience (Dortmund, Germany) and kept in Kulori medium (90 mM NaCl, 4 mM KCl, 1 mM MgCl2, 1 mM CaCl2, and 5 mM Hepes, pH 7.4). Oocytes were micro-injected with 50 nl mRNA solution containing 30 ng RNA per oocyte and incubated at 19°C. Currents were measured after 2–5 days using a conventional two-electrode-voltage clamp (TEVC). The oocytes were placed in a 200 μl chamber and continuously exposed to a flow of Kulori medium with or without ligands (1 ml/min) while impaled with both a current and a voltage electrode filled with 3 M KCl and connected to an Oocyte Clamp Amplifier [Warner Instruments Corp. (OC-725 B) and a PC-interface (Digidata1440A, Molecular Devices)]. Current amplitude in absence or presence of ligands were analyzed using pClamp 10.2 software (Molecular Devices). All experiments were performed with oocyte membrane voltages constantly clamped to −70 mV and the temperature was kept between 19 and 22°C. In activation experiments, non-responding as well as low-responding (<10 nA) oocytes were excluded from the dataset. Ligands PACAP-38, PACAP-27, PACAP(6–38) were custom synthetized by Caslo (Lyngby, Denmark) while maxadilan was purchased from Bachem (Bubendorf, Switzerland).
(§4) Concentration-response curves for both oocytes and dural mast cells were analyzed for overall effects of PACAP-38 and -27 by two-way analyses of variance (ANOVA) followed by Sidak’s test for multiple pairwise comparisons. Effects of PAC1-receptor ligands on mast cell degranulation or on receptor-expressing oocytes were analyzed with a one-way ANOVA followed by Tukey’s multiple comparisons test. The effect of PACAP-38 and PACAP(6–38) on MrgB3-expressing oocytes were analyzed by an unpaired two-tailed t-test. Differences between groups were considered significant when p < 0.05 and data are presented as mean with standard error of the mean (±SEM). GraphPad Prism 7 (GraphPad Prism Software, San Diego, CA, USA) was used for statistical analysis.

A further assay deals with rat meningeal mast cells. Kind of assay: Mast cell degranulation in hemi-skull preparations (dura mater, toluidine blue staining, microscopic count). It counts as cell-based, rat (male Sprague-Dawley). Here is the method:
Mast cell degranulation was performed as previously described (Pedersen et al., [2015]). In brief, skulls were cut mid-sagittal and the brain halves were removed, leaving the dura mater undisturbed. This was followed by immediate addition of either 350 μl 0.1, 1 or 10 μM PACAP-38 (custom synthesis by Caslo Laboratory ApS, Lyngby, Denmark) or vehicle (saline) in phosphate buffered saline (PBS). After 30 s incubation, the reactions were terminated, and the skulls were fixated in 4% paraformaldehyde in phosphate buffered saline (PBS; Glostrup Hospital Pharmacy, Denmark). The dura mater was dissected from the skull, whole mounted on slides, and mast cells were visualized by staining with 0.1% acidified toluidine blue (Sigma Aldrich, Germany). Tissues were dehydrated in graded alcohols prior to cover slip mounting. The level of mast cell degranulation was evaluated by 400× magnification (Nikon Eclipse Ni microscope) by a researcher blinded to the treatment and was counted in 10 consecutive fields along the stem part of the middle meningeal artery. Mast cells were considered degranulated if an extensive dispersion of more than 10 extruded granules were localized outside the cell or if an extensive loss of staining gave the cell a “ghostly” look.
as §4

Assay [4] relates to MrgB3-receptor (RGD1560730). Kind of assay: Two-electrode voltage clamp on MrgB3-receptor-expressing Xenopus laevis oocytes. It counts as cell-based, rat. To be noted: 1–10 μM, holding potential −70 mV.
Excerpt: as §2, §3, §4
(In general: Two-electrode voltage clamp is typically applied to oocytes expressing channels or transporters.)

Assay [5] has as its system PAC1-receptor (Rattus Norvegicus Adcyap1r1 variant 5, null-splice variant). Kind of assay: Antagonism of PACAP-38-induced currents in PAC1-receptor-expressing oocytes (TEVC). It is filed as cell-based.
Excerpt: as §2, with “RNA was in vitro transcribed by synthetization from the T7 RNA polymerase promoter using the mMessenger mMachine kit (Ambion) according to manufacturer’s protocol. Messenger RNA was purified using the MEGAclear kit (Ambion).” left out
Stage V and VI defolliculated Xenopus laevis oocytes were purchased from EcoCyte Bioscience (Dortmund, Germany) and kept in Kulori medium (90 mM NaCl, 4 mM KCl, 1 mM MgCl2, 1 mM CaCl2, and 5 mM Hepes, pH 7.4). […] Currents were measured after 2–5 days using a conventional two-electrode-voltage clamp (TEVC). […] Current amplitude in absence or presence of ligands were analyzed using pClamp 10.2 software (Molecular Devices). […]
Concentration-response curves for both oocytes and dural mast cells were analyzed for overall effects of PACAP-38 and -27 by two-way analyses of variance (ANOVA) followed by Sidak’s test for multiple pairwise comparisons. […]

The test system of the next assay is MrgB3-receptor. To be noted: ref Tatemoto et al., 2006; cited from earlier work. An excerpt: The exact mechanism of basic secretagogue-mediated mast cell degranulation remains unclear. […] However, this would require the ability of peptides, despite their positive charge, to diffuse across the membrane in order to reach intracellular G-proteins, and as this has not been shown, the hypothesis seems unlikely (Tat ...

The mark [6] stands for this setting: ref Spengler et al., 1993, Pantaloni et al., 1996.

On to vasoactive intestinal peptide [VIP], for which, in assay [1], the “release of CGRP from the trigeminal nucleus caudalis (result in words)” value is “neither VIP, PACAP-27 nor maxadilan, mediated the release”. For the same substance, the “binding to the PAC1-receptor, times lower than PACAP” value in the assay on PAC1-receptor is on record as 1,000 times. For the same substance, the “profile on VPAC2-receptor (result in words)” value with VPAC2-receptor is on record as “equipotent”. In addition, in the assay on migraine patients, the “migraine attacks / headache after infusion (result in words)” value is “only induces a mild headache and no migraine-like attacks in migraineurs; also recorded: does not provoke migraine headache”. Also, the “peritoneal mast cell degranulation (result in words)” value in assay [2] is “not PACAP-27 and VIP, caused degranulation; also recorded: weak degranulating effect”. The “affinity to VPAC2 relative to PACAP (result in words)” value in the assay with VPAC2 (setting [6]) was “equals that of PACAP”. Besides, the “affinity to VPAC1 relative to PACAP (result in words)” value in the assay on VPAC1 (setting [6]) is “equals that of PACAP”. In addition, in the assay on VPAC1-receptor, the “profile on VPAC1-receptor (result in words)” value was “equipotent”.
The substance “Pituitary Adenylate Cyclase Activating Peptide(6–38) (FTDSYSRYRKQMAVKKYLAAVLGKRYKQRVKNK; ends and bridges not checked; UniProt P18509 137-169, looked up, fragment) [PACAP(6–38), PAC1-receptor antagonist, custom synthetized by Caslo]” registered a current in assay [3] (0.1 μM alone, 1 min perfusion, −70 mV, Figure 6B, n = 9, mean ± SEM) of −5 ± 6 nA. Further, the “activation of PAC1-receptor / relative potency (result in words)” value in assay [3] (0.01 to 1 μM, holding potential −70 mV) is “unable to induce currents”. Further, the “peritoneal mast cell degranulation (result in words)” value in [2] was “pronounced mast cell degranulation; also recorded: as potent as PACAP-38”. For the same substance, the “affinity to VPAC2-receptor (result in words)” value with VPAC2 (ref Harmar et al., 2012) is recorded as “has not been shown to have an affinity”. Also, the “affinity to VPAC1-receptor (result in words)” value with VPAC1 (ref Harmar et al., 2012) is recorded as “has not been shown to have an affinity”. For the same substance, the mast cell degranulation in the assay on rat meningeal mast cells (10 μM, Figure 6A, PACAP(6–38) n = 7 (p < 0.0001), PACAP-38 n = 5, mean ± SEM) amounted to 93 ± 2%. Also, in the assay with rat meningeal mast cells (0.1 to 10 μM, 30 s, rat meningeal mast cells), the “mast cell degranulation (result in words)” value is on record as “as potent as PACAP-38; also recorded: potent degranulator of rat meningeal mast cells”. Besides, the “activation of MrgB3-receptor (result in words)” value in assay [4] is “agonistic effect on MrgB3-receptors expressed in oocytes; also recorded: equipotent to PACAP-38; also recorded: induce a significant current in MrgB3-receptor-expressing oocytes”. Further, the “inhibition of PACAP-38 induced responses (result in words)” value in assay [5] (PACAP(6–38) 0.1 μM together with PACAP-38, one-way ANOVA, Tukey's test) is on record as “significantly antagonized; also recorded: significant inhibition of PACAP-38 induced responses”. Moreover, the “PACAP-38-induced current in presence of antagonist” value in [5] (PACAP(6–38) administered together with PACAP-38 in 0.1 μM, −70 mV, n = 10, mean ± SEM, PACAP-38 alone −0.18 ± 0.5 μA) was −0.05 ± 0.02 μA.
With [D-Trp^7,9,10]-substance P, in the assay on MrgB3-receptor, the “affinity to MrgB3-receptor (result in words)” value is given as “affinity”.

The values are drawn from PMC6447718, “PACAP-38 and PACAP(6–38) Degranulate Rat Meningeal Mast Cells via the Orphan MrgB3-Receptor” (Frontiers in Cellular Neuroscience, 2019).
